Legend:
mouse IOP [1] = test: Mouse IOP after topical application, non-invasive pneumotonometry; type: in vivo, Black Swiss mice
Procedure: (§1) The test animals were black Swiss outbred mice of mixed sex, 7-9 weeks old and 25-30 g in weight, obtained from Taconic Inc. (Germantown, N.Y.), and maintained under 12:12-h light/dark illumination cycle and allowed unrestricted access to food and water. Mice were anesthetized with intraperitoneal ketamine ([…]) supplemented by topical proparacaine HCl 0.5% (Allergan, Bausch & Lomb) for the IOP measurements. IOP was measured invasively (SNMS) and non-invasively by pneumotonometry in separate animals.
By comparison, IOP was measured non-invasively by pneumotonometry (OBT) (Avila et al., supra, 2005). As previously described, the commercially available tip of the ocular blood tomography (OBT) pneumotonometer (Blood Flow Analyzer [BFA] probe tip; Paradigm Medical Industries Inc.) was fit to a custom-built mount. Air flow from a constant pressure source was passed through the mount to reach a diaphragm forming the end of the BFA tip. The flow of air displaces the diaphragm outward, permitting escape of the air through holes in the wall of the probe tip into the atmosphere. Pressure was monitored with a transducer connected through a T-connection to the base of the BFA tip. The probe assembly was advanced to the cornea with a three-axis micromanipulator. The probe tip was advanced sufficiently to make contact with the tear film, as was indicated by a shift in the baseline output reading. In a refined method, the tip was withdrawn until the […] was visually displaced from the tear film. The output was then adjusted to zero before advancing the tip again. Contact with the cornea depresses the diaphragm of the BFA tip, occluding access of the air flow to the escape holes and raising the pressure at the base of the tip.
This approach was simplified to expedite identification of the endpoint, and the probe was subsequently advanced in about 10 standardized steps of approximately […] at intervals of about 10 seconds to identify the inflection region (Wang et al., supra, 2006). […] The pneumotonometric estimates of IOP were previously found to agree with manometric measurements in cannulated preparations and with estimates obtained by the servo-null technique (Avila et al., supra, 2005). Having established the baseline value of IOP, the position along the axis of advance of the micromanipulator was noted, and the probe was retracted from contact with the cornea. Subsequent measurements of IOP at later time points were obtained by advancing the probe tip to the same position, with the placement of the mouse maintained stereotactically. The measurements were conducted at 10-min intervals to avoid potential artifacts associated with prolonged pressure on the cornea.
(§2) Ketamine HCl was purchased from Phoenix Pharmaceutical Inc. (St. Joseph, Mo.). Other drugs were obtained from Sigma Chemical (St. Louis, Mo.). Drugs were applied topically with an Eppendorf pipette. […] The final droplet solution contained the drugs at the stated concentrations together with <2% DMSO and 0.0005% benzalkonium chloride at an osmolality of 295-300 mOsm. DMSO was omitted, altogether, from droplets containing the hydrophilic compounds adenosine, carbachol and carboxyfluorescein.
(§3) Effects on invasively-measured IOP were measured 10 min after topical application because after this time, the continued presence of the micropipette can be associated with a downward drift of the IOP, even under control conditions. In contrast, smaller droplets ([…]) were applied to the eye more frequently (three times instead of once) with the non-invasive technique, in order to forestall drying of the eye associated with the airflow from the pneumotonometer. With the non-invasive protocol, the IOP was stable for 30 min under control conditions.
In Table 1, an endpoint of 10 minutes was used for the invasive measurements in light of the above-discussed downward drift of the IOP, even under control conditions. […]

mouse IOP [2] = test: Mouse IOP after topical application, invasive servo-null micropipette system (SNMS); type: in vivo, Black Swiss mice
Procedure: as §1
By the SNMS approach (Avila et al., supra, 2001), the exploring micropipette, of […] outer diameter, was filled with a highly conducting solution and advanced across the cornea into the anterior chamber. A refined technique by Wang et al., Invest. Opthalmol. Vis. Sci. (serial online) (Aug. 31, 2006) available at www.iovs.org/egi/letters/46/9/3274#422, enhanced stability and reduce the background noise of the records, permitting fabrication of micropipettes whose resistance is 0.1-0.3 MΩ, rather than the 0.25-0.4 MΩ used initially. The filling solution was reduced from 3M KCl to 2M NaCl, rather than 3 M KCl. The resistance of the filled micropipette was balanced in a bridge circuit, and the tip was then advanced across the cornea. Upon entering the anterior chamber of the eye, the IOP forces the much lower-conducting aqueous humor into the micropipette tip, displacing the original filling solution. The micropipette resistance was thereby increased, unbalancing the bridge circuit and triggering a bellows to provide a counter-pressure, restoring the position of the filling solution and returning the resistance to its initial value. Thus, the value of the counter-pressure equals the IOP. As in the past (Avila et al., supra, 2001), the stability of the records permitted continuous measurements for tens of minutes during the course of drug applications.
as §2, §3
In Table 1, an endpoint of 10 minutes was used for the invasive measurements in light of the above-discussed downward drift of the IOP, even under control conditions. Also the need for smaller, more frequent droplets are discussed above with regard to the non-invasive technique using the pneumotonometer. As above, with the non-invasive protocol, the IOP was stable for 30 minutes under control conditions.

[3] = tested on: C57 mouse intraocular pressure; test: C57 mouse intraocular pressure, invasive servo-null technique; type: in vivo, C57 mice

SMILES: CN(C)C(=O)[C@H]1O[C@@H](n2cnc3c(NCc4cccc(I)c4)nc(Cl)nc32)[C@H](O)[C@@H]1O [MRS-3771]
- effect on mouse IOP measured non-invasively (in words) (mouse IOP [1]; pneumotonometry, topical, MRS-3833 at 200 nM): exerted no effect on IOP
- Δ(IOP) Pneumotonometer (mouse IOP [1]; topical droplets 250 μM (2% DMSO), 30 min): +0.4 ± 0.6 mm Hg
- effect on mouse IOP measured invasively (in words) (mouse IOP [2]; servo-null, topical): effective in lowering mouse IOP
- effect on IOP in the mouse (in words) (mouse IOP [2]; tested by the inventors, technique not given): found to lower IOP in the mouse
- Δ(IOP) Servo-Null (mouse IOP [2]; topical droplet 250 μM (2% DMSO), endpoint 10 min): −3.0 ± 1.1 mm Hg
- IOP with MRS3771 ([3]; Mean ± SEM of 6 experiments): 13.2 ± 1.6 mm Hg
- change in IOP ([3]; Mean ± SEM of 6 experiments): −3.3 ± 0.6 mm Hg
- lowering of IOP of C57 mice ([3]; topical, N=6): 3.3±0.6 mm Hg

From patent publication US20090258836A1, “EFFECTIVE DELIVERY OF CROSS-SPECIES A3 ADENOSINE-RECEPTOR ANTAGONISTS TO REDUCE INTRAOCULAR PRESSURE” (The Trustees of The University of Pennsylvania, priority 2006, published 2009)
